The values below come from patent US20100197789A1, “ANTI-OBESITY AGENT AND USE THEREOF” (National University Corporation Nagoya University, priority 2006, published 2010).

What all share (format): in vivo, mouse
The test system of one test is db/^+m mice. Description: Food intake amount and body weight, 5 week-continuous oral administration, non-obese db/+m mice. The following applies: SKF97541 10×10^−6 M, 3-APPA 100×10^−6 M in drinking water. On the procedure:
5 week-old male C57BL/KsJ-db/^+m mice (db/^+m mice: body weight 19 to 23 g, Japan SLC, Inc.) were purchased and individually fed in tip cages. To the db/^+m mice, normal pellet diet (CE-2) was administered under free water intake and free food intake. A body weight and a food intake amount over 24 hours were measured every day from the start of feeding. On day 3 after the start of feeding, blood was taken from an orbit after 6 hour-fasting and a blood glucose level and a blood insulin concentration were measured. The db/^+m mice were divided into two groups (10 mice per each group) so that a body weight, a 24 hour-food intake amount, a blood glucose level, and a blood insulin concentration were equal, and defined to be a control group and a baclofen treated group. After division into the groups, from day 5 after the start of feeding, (±)-baclofen was dissolved in drinking water and 5 week-continuous oral administration was started in the baclofen treated group. (±)-baclofen was dissolved in drinking water at a concentration of 2.7 mg/dl used in the high concentration treated group in the experiment of db/db mice. A food intake amount and a body weight of the db/^+m mice were measured over time, and a rectal temperature was measured 5 weeks after the start of the administration. Blood was taken after the 5-week administration of (±)-baclofen, and the db/^+m mice were sacrificed by cervical luxation.
5 week-old male C57BL/KsJ-db/db mice (db/db mice: body weight 19 to 25 g, Japan SLC, Inc.) were purchased and individually fed in tip cages. Normal pellet diet (CE-2) was administered to the db/db mice under free water intake and free food intake. A body weight and a food intake amount over 24 hours were measured every day from the start of feeding. On day 3 after the start of feeding, blood was taken from an orbit after 6 hour-fasting and a blood glucose level and a blood insulin concentration were measured. The db/db mice were divided into three groups (10 mice per each group) so that a body weight, a 24 hour-food intake amount, a blood glucose level, and a blood insulin concentration were equal and defined to be a control group, an SKF97541 treated group and a 3-APPA treated group. SKF97541 and 3-APPA were dissolved in drinking water at respective concentrations of 10×10^−6 M and 100×10^−6 M, and continuously orally administered for 5 weeks, and a food intake amount and a body weight were measured over time during the administration period. SKF97541 (10×10^−6 M) or 3-APPA (100×10^−6M) was dissolved in drinking water and orally administered also to db/^+m mice, and a food intake amount and a body weight were measured over time in the same manner.

In test [1] the test system is DIO mice. Description: Food intake amount and body weight, 5 week-continuous oral administration, diet-induced obese (DIO) mice. The following applies: (±)-baclofen 5 mg/kg/day, SKF97541 0.3 mg/kg/day, 3-APPA 5 mg/kg/day; for body weight increase / food intake amount: DIO mice (high fat diet), oral in drinking water 5 weeks; for time after start of administration from which body weight increase suppression was significant / time after start of administration from which food intake suppression was significant: DIO mice, continued until 5 weeks. Here is the method:
(§1) 5 week-old male C57BL/6N mice (body weight 17 to 20 g, CLEA Japan, Inc.) were purchased and individually fed in tip cages. To the mice, normal pellet diet (CE-2) was administered under free water intake and free food intake. A body weight and a food intake amount over 24 hours were measured every day from the start of feeding. On day 3 after the start of feeding, blood was taken from an orbit after 6 hour-fasting and a blood glucose level and a blood insulin concentration were measured. The mice were divided into a control group and a baclofen treated group (10 mice per each group) so that a body weight, a 24 hour-food intake amount, a blood glucose level, and a blood insulin concentration were equal, and diet induced-obesity (DIO) was started to be induced by administration of high fat diet (High Fat Diet 32, energy fat ratio 60%, CLEA Japan, Inc.) (DIO mice). At the same time as the start of administering the high fat diet, (±)-baclofen was dissolved in drinking water and 5 week-continuous oral administration was started in a dosage of 5 mg per 1 kg of a body weight in 1 day (5 mg/kg/day). A food intake amount and a body weight were measured over time during the 5 week-administration period. (±)-baclofen (5 mg/kg/day) was orally administered also to C57BL/6N mice (lean mice) that are non-obese mice to which normal diet was administered in the same manner as described above, and a food intake amount and a body weight were measured over time.
(§2) 5 week-old male C57BL/6N mice (body weight 17 to 20 g, CLEA Japan, Inc.) were purchased and individually fed in tip cages. Normal pellet diet (CE-2) was administered to the mice under free water intake and free food intake. A body weight and a food intake amount over 24 hours were measured every day from the start of feeding. On day 3 after the start of feeding, blood was taken from an orbit after 6 hour-fasting and a blood glucose level and a blood insulin concentration were measured. The mice were divided into a control group, an SKF97541 treated group and a 3-APPA treated group (10 mice per each group) so that a body weight, a 24 hour-food intake amount, a blood glucose level, and a blood insulin concentration were equal, and diet induced-obesity (DIO) was started to be induced by administration of high fat diet (High Fat Diet 32, energy fat ratio 60%, CLEA Japan, Inc.) (DIO mice). At the same time as the start of administering the high fat diet, SKF97541 (0.3 mg/kg/day) or 3-APPA (5 mg/kg/day) was dissolved in drinking water and 5 week-continuous oral administration was started. A food intake amount and a body weight were measured over time during the 5 week-administration period. SKF97541 (0.3 mg/kg/day) or 3-APPA (5 mg/kg/day) was orally administered also to C57BL/6N mice (lean mice) to which normal diet was administered in the same manner as described above, and a food intake amount and a body weight were measured over time.

Another test has as its system lean mice. The test can be described thus: Food intake amount and body weight, 5 week-continuous oral administration, non-obese lean mice. The following applies: lean mice (normal diet); oral 5 weeks; (±)-baclofen 5 mg/kg/day, SKF97541 0.3 mg/kg/day, 3-APPA 5 mg/kg/day. On the procedure:
as §1, §2

Test [2] has as its system DIO mice. The test can be described thus: Fasting blood glucose, HbA1c, blood insulin, plasma leptin and adiponectin after 5-week administration, DIO mice. The following applies: (±)-baclofen 5, SKF97541 0.3, 3-APPA 5 mg/kg/day, vs control; for fasting blood glucose level / fasting blood insulin concentration: 6 hour-fasting after 5 weeks oral; for HbA1c value: after 5 weeks oral. Here is the method: The blood glucose level was measured by a glucose analyzer Antisense (HORIBA, Ltd.) promptly after taking blood from an orbit. HbA1c was measured by a glycohemoglobin analyzer HLC-723 GHbV (manufactured by TOSOH Corporation) after preserving blood at −80° C.
After taking blood from an orbit by using a hematocrit tube coated with heparin, blood was centrifuged at 3500 rpm at 4° C. for 15 minutes, and plasma was preserved at −80° C. The plasma concentrations of insulin, leptin and adiponectin were measured by the ELISA method (levis insulin kit (mouse): Shibayagi Co., Ltd., Morinaga Leptin assay kit: Morinaga Institute of Biological Science, Inc., Mouse/rat adiponectin ELISA kit: OTSUKA Pharmaceutical Co., Ltd.).
(±)-baclofen (5 mg/kg/day), SKF97541 (0.3 mg/kg/day) or 3-APPA (5 mg/kg/day) was orally administered to DIO mice for 5 weeks according to the above described method, and then blood was taken from an orbit after 6 hour-fasting and a blood glucose level, an HbA1c value and a blood insulin concentration were measured.
(±)-baclofen (5 mg/kg/day) was orally administered to DIO mice for 5 weeks according to the above described method, and then, blood was taken from an orbit after 6 hour-fasting, and a plasma leptin concentration and a plasma adiponectin concentration were measured. The DIO mice were sacrificed by cervical luxation after the end of the 5-week administration, and then epididymal white adipose tissues and subcutaneous white adipose tissues were surgically removed, and after measuring the weights, they were fixed in 4% formaldehyde. The epididymal white adipose tissues were cut out to prepare a section with a thickness of 8 μm and subjected to Hematoxylin-Eosin stain (H-E stain) and a form (size) of a fat cell was examined by using an image analysis system, Neurolucida (MicroBrightField Japan, Inc.).

Another test has as its system db/db mice. Description: Food intake amount and body weight, 5 week-continuous oral administration in drinking water, db/db mice. The settings on record: SKF97541 10×10^−6 M, 3-APPA 100×10^−6 M in drinking water; for time after start of administration from which body weight increase suppression was significant / time after start of administration from which cumulative food intake suppression was significant: continued until end of experiment; for body weight increase / cumulative food intake amount: oral, 5 weeks.

For the molecule `NCCCP(=O)(O)O` [3-APPA, 3-aminopropylphosphonic acid], in the test on db/^+m mice, the body weight result is reported as “did not give significant effects” and the food intake amount entry is listed as “did not give significant effects”. Also, in the test with DIO mice [1], the body weight increase result is “significantly suppressed”, the food intake amount entry is on record as “significantly suppressed”, the “time after start of administration from which body weight increase suppression was significant” value worked out at 1 week and the “time after start of administration from which food intake suppression was significant” value is 1 week. Besides, in the test with lean mice, the body weight result is “did not give significant effects” and the food intake amount result is reported as “did not give significant effects”. For the same molecule, in the test with DIO mice [2], the “fasting blood glucose level” value is “significant decreases”, the “fasting blood insulin concentration” value is recorded as “significant decreases” and the HbA1c value entry is “significant decreases”. In the test with db/db mice, the “time after start of administration from which body weight increase suppression was significant” value came to 1 week, the “time after start of administration from which cumulative food intake suppression was significant” value turned out to be 1 weeks, the body weight increase entry was “significantly suppressed” and the “cumulative food intake amount” value is recorded as “significantly suppressed”.

On to `CP(=O)(O)CCCN` [SKF97541, 3-aminopropyl-(methyl)phosphinic acid], for which, in the test on db/^+m mice, the body weight entry was “did not give significant effects” and the food intake amount result is “did not give significant effects”. Further, in the test on DIO mice [1], the body weight increase result is “significantly suppressed”, the food intake amount result is given as “significantly suppressed”, the “time after start of administration from which body weight increase suppression was significant” value stood at 1 week and the “time after start of administration from which food intake suppression was significant” value is 1 week. For the same molecule, in the test with lean mice, the body weight entry is on record as “did not give significant effects” and the food intake amount entry was “did not give significant effects”. Also, in the test with DIO mice [2], the “fasting blood glucose level” value is “significant decreases”, the “fasting blood insulin concentration” value is “significant decreases” and the HbA1c value entry is “significant decreases”. Further, in the test with db/db mice, the “time after start of administration from which body weight increase suppression was significant” value is recorded as 1 week, the “time after start of administration from which cumulative food intake suppression was significant” value was determined as 2 weeks, the body weight increase result was “significantly suppressed” and the “cumulative food intake amount” value is recorded as “significantly suppressed”.
